# Test system: Human melanoma HM3KO cells
# Experiment: Effect on inhibition of melanin production
# Format: cell-based
# Details: 10 ppm of each test material, absorbance at 500 nm vs DMSO control
# Description: Human melanoma HM3KO cells (Y. Funasaka, Department of dermatology, Kobe university school of medicine, 5-1 Kusunoki-cho 7-chrome, Chuo-ku, Kobe 650, Japan) were cultured in 10% FBS-containing MEM (Minimum Essential Medium) under the conditions of 37° C. and 5% CO2. The cultured cells were plated on T75 flasks at a density of 3×10^5 cells per flask and allowed to stand overnight until the cells adhered to the flask wall. After the cells were confirmed to adhere to the flask wall, the medium was replaced with a fresh medium containing 10 ppm of each of the test materials shown in Table 1 below. In a control group, a DMSO-containing medium was used. In this manner, the medium was replaced with a fresh medium containing each test material once at intervals of 2-3 days, while the cells were cultured until the flask was filled with the cells. When the cells completely grew, the cells were collected, and the color thereof was compared between the control group and each of the groups treated with the test material. In addition, after the culture medium has been removed and the cells were washed with PBS, the cells were dissolved in 1N sodium hydroxide, and the absorbance at 500 nm was measured. Based on the measurements, the inhibition (%) of melanin production was calculated using the following equation 1, and the results of the calculation are shown in Table 1 below. Inhibition (%) of melanin production=[…] [Equation 1]
row,Compound,inhibition at 10 ppm [%]
1,NC(=O)c1cccnc1 [Nicotinic acid amide],29.5
2,NC[C@H]1CC[C@H](C(=O)O)CC1 [Tranexamic acid],32.2
3,O=c1cc(CO)occ1O [Kojic acid],28.3

# Reference: patent US20130018020A1, “INHIBITOR FOR MELANIN, AND COSMETIC COMPOSITION CONTAINING SAME” (AMOREPACIFIC CORPORATION, priority 2010, published 2013)
